Here are results for 40 substances from the OligoGym collection.

Oligonucleotides are written 5' to 3', each unit as a sugar letter and its base; * is a phosphorothioate linkage, no mark a phosphodiester; rarer units and linkages stand in square brackets, end groups in braces. Plain capitals give the bases only. Oligonucleotides are given in HELM: sugar(base)linkage, 5' to 3'; d 2'-deoxyribose, r ribose, m 2'-O-methylribose, p phosphate. ss, as = sense and antisense strand; d = 2'-deoxy (DNA); r = 2'-OH (RNA)
Note: test concentration or dose not given here.

In the first data set the target is P2RX3. The data set can be described thus: reporter assay of Huesken 2005. The settings on record: siRNA. On the technique in general: Reporter assays use an easily measured gene product as a stand-in for the process of interest.
In turn, “sense rCrCrArCrCrUrCrArGrGrGrCrArCrCrUrCrGrGdTdT / antisense rCrCrGrArGrGrUrGrCrCrCrUrGrArGrGrUrGrGdCdG” registered a normalised inhibition (eCFP-eYFP dual reporter) of 70.2%.

In turn, “sense rUrUrGrUrUrArCrUrGrArArArArUrCrArGrArUdTdT / antisense rArUrCrUrGrArUrUrUrUrCrArGrUrArArCrArAdTdC” registered a normalised inhibition (eCFP-eYFP dual reporter) of 54.1%.

“sense rArArGrArCrCrUrGrCrCrGrCrUrUrCrCrArCrCdTdT / antisense rGrGrUrGrGrArArGrCrGrGrCrArGrGrUrCrUrUdCdA”: the normalised inhibition (eCFP-eYFP dual reporter) is 39.9%.

“sense rGrArCrUrUrGrGrArCrArArGrGrCrCrUrGrGrGdTdT / antisense rCrCrCrArGrGrCrCrUrUrGrUrCrCrArArGrUrCdGdC” yielded a normalised inhibition (eCFP-eYFP dual reporter) of 93%.

Take “sense rUrCrCrUrCrArCrUrGrGrCrCrGrCrUrGrCrGrUdTdT / antisense rArCrGrCrArGrCrGrGrCrCrArGrUrGrArGrGrAdTdC”: the normalised inhibition (eCFP-eYFP dual reporter) stood at 16.4%.

For the substance “sense rCrGrCrGrGrCrUrUrUrGrArCrCrArArCrCrCrAdTdT / antisense rUrGrGrGrUrUrGrGrUrCrArArArGrCrCrGrCrGdAdT”, the normalised inhibition (eCFP-eYFP dual reporter) is 84.4%.

With “sense rGrCrUrCrCrGrGrArCrUrCrUrArCrGrCrCrArAdTdT / antisense rUrUrGrGrCrGrUrArGrArGrUrCrCrGrGrArGrCdCdC”, the normalised inhibition (eCFP-eYFP dual reporter) is 87.3%.

Take “sense rCrUrArCrGrCrCrArArCrArGrArGrUrCrArUrGdTdT / antisense rCrArUrGrArCrUrCrUrGrUrUrGrGrCrGrUrArGdAdG”: the normalised inhibition (eCFP-eYFP dual reporter) was 53.4%.

Turning to “sense rGrArArArCrGrCrCrCrArUrCrArUrGrArUrGrGdTdT / antisense rCrCrArUrCrArUrGrArUrGrGrGrCrGrUrUrUrCdCdA”, the normalised inhibition (eCFP-eYFP dual reporter) stood at 48.7%.

Substance “sense rGrGrGrCrArUrUrArArGrArUrCrGrGrCrUrGrGdTdT / antisense rCrCrArGrCrCrGrArUrCrUrUrArArUrGrCrCrCdAdG” had a normalised inhibition (eCFP-eYFP dual reporter) of 59.7%.

“sense rCrUrUrUrArCrUrUrCrUrGrUrGrGrGrArGrUrGdTdT / antisense rCrArCrUrCrCrCrArCrArGrArArGrUrArArArGdGdC” yielded a normalised inhibition (eCFP-eYFP dual reporter) of 67.7%.

For “sense rGrArCrCrCrUrUrUrCrUrGrCrCrCrCrArUrCrUdTdT / antisense rArGrArUrGrGrGrGrCrArGrArArArGrGrGrUrCdCdT”, the normalised inhibition (eCFP-eYFP dual reporter) amounted to 65.8%.

Consider “sense rGrUrArCrCrGrCrArCrCrCrUrCrCrUrGrArArGdTdT / antisense rCrUrUrCrArGrGrArGrGrGrUrGrCrGrGrUrArCdTdC”, for which the normalised inhibition (eCFP-eYFP dual reporter) worked out at 37.1%.

In the case of “sense rUrArGrGrGrUrGrGrGrUrUrUrUrCrUrUrGrCrAdTdT / antisense rUrGrCrArArGrArArArArCrCrCrArCrCrCrUrAdCdA”, the normalised inhibition (eCFP-eYFP dual reporter) was 82.2%.

Turning to “sense rArCrArGrCrCrArGrGrGrArCrArUrGrArArGrAdTdT / antisense rUrCrUrUrCrArUrGrUrCrCrCrUrGrGrCrUrGrUdCdA”, the normalised inhibition (eCFP-eYFP dual reporter) amounted to 78.1%.

As to “sense rUrUrUrCrUrGrCrCrCrCrArUrCrUrUrGrCrGrGdTdT / antisense rCrCrGrCrArArGrArUrGrGrGrGrCrArGrArArAdGdG”, the normalised inhibition (eCFP-eYFP dual reporter) came to 35.2%.

In the case of “sense rUrCrCrUrGrCrUrCrArArCrUrUrCrCrUrCrArAdTdT / antisense rUrUrGrArGrGrArArGrUrUrGrArGrCrArGrGrAdTdG”, the normalised inhibition (eCFP-eYFP dual reporter) turned out to be 90.3%.

Substance “sense rGrGrCrCrUrUrUrArCrUrUrCrUrGrUrGrGrGrAdTdT / antisense rUrCrCrCrArCrArGrArArGrUrArArArGrGrCrCdGdC” yielded a normalised inhibition (eCFP-eYFP dual reporter) of 80.2%.

Substance “sense rUrUrCrUrGrCrCrCrArGrArGrArGrUrGrArGrGdTdT / antisense rCrCrUrCrArCrUrCrUrCrUrGrGrGrCrArGrArAdTdC” returned a normalised inhibition (eCFP-eYFP dual reporter) of 44.3%.

“sense rGrCrGrGrArGrArArGrCrArGrUrCrCrArCrCrGdTdT / antisense rCrGrGrUrGrGrArCrUrGrCrUrUrCrUrCrCrGrCdTdG”: the normalised inhibition (eCFP-eYFP dual reporter) turned out to be 81.8%.

Consider “sense rArGrGrArGrArArArUrArCrCrGrCrUrGrUrGrUdTdT / antisense rArCrArCrArGrCrGrGrUrArUrUrUrCrUrCrCrUdCdA”, for which the normalised inhibition (eCFP-eYFP dual reporter) came to 71.8%.

Regarding “sense rArCrCrCrGrGrCrUrCrGrArCrArGrCrGrUrUrUdTdT / antisense rArArArCrGrCrUrGrUrCrGrArGrCrCrGrGrGrUdGdA”, the normalised inhibition (eCFP-eYFP dual reporter) worked out at 94.1%.

As to “sense rUrGrCrArUrCrCrCrCrArArArUrArCrUrCrCrUdTdT / antisense rArGrGrArGrUrArUrUrUrGrGrGrGrArUrGrCrAdCdT”, the normalised inhibition (eCFP-eYFP dual reporter) stood at 56.3%.

As for “sense rGrArGrGrArGrArArArUrArCrCrGrCrUrGrUrGdTdT / antisense rCrArCrArGrCrGrGrUrArUrUrUrCrUrCrCrUrCdAdC”, the normalised inhibition (eCFP-eYFP dual reporter) was 67.4%.

Regarding “sense rUrCrGrGrUrCrUrUrUrGrUrCrArUrCrArUrCrAdTdT / antisense rUrGrArUrGrArUrGrArCrArArArGrArCrCrGrAdGdG”, the normalised inhibition (eCFP-eYFP dual reporter) came to 72.8%.

Regarding “sense rUrGrGrUrGrCrCrCrCrArCrGrGrArGrGrUrGrGdTdT / antisense rCrCrArCrCrUrCrCrGrUrGrGrGrGrCrArCrCrAdGdC”, the normalised inhibition (eCFP-eYFP dual reporter) was 13.5%.

The substance “sense rArGrArCrUrArCrGrCrUrGrArArArArUrCrGrCdTdT / antisense rGrCrGrArUrUrUrUrCrArGrCrGrUrArGrUrCrUdCdA” returned a normalised inhibition (eCFP-eYFP dual reporter) of 77.1%.

Regarding “sense rGrArUrUrCrUrGrCrCrCrArGrArGrArGrUrGrAdTdT / antisense rUrCrArCrUrCrUrCrUrGrGrGrCrArGrArArUrCdCdT”, the normalised inhibition (eCFP-eYFP dual reporter) stood at 96.9%.

“sense rGrGrUrGrArArUrGrArGrArCrUrArCrGrCrUrGdTdT / antisense rCrArGrCrGrUrArGrUrCrUrCrArUrUrCrArCrCdTdC” had a normalised inhibition (eCFP-eYFP dual reporter) of 87.3%.

Turning to “sense rUrCrArCrUrArUrUrUrUrCrArUrCrArArGrArAdTdT / antisense rUrUrCrUrUrGrArUrGrArArArArUrArGrUrGrAdAdG”, the normalised inhibition (eCFP-eYFP dual reporter) was found to be 79.6%.

As for “sense rArArCrCrGrArGrUrArGrUrUrCrArGrCrUrUrCdTdT / antisense rGrArArGrCrUrGrArArCrUrArCrUrCrGrGrUrUdGdA”, the normalised inhibition (eCFP-eYFP dual reporter) is 62%.

For “sense rGrArArGrCrUrGrArGrArArCrUrUrCrArCrUrAdTdT / antisense rUrArGrUrGrArArGrUrUrCrUrCrArGrCrUrUrCdCdA”, the normalised inhibition (eCFP-eYFP dual reporter) is 88.8%.

Regarding “sense rUrUrUrGrCrCrArArArCrUrGrGrCrGrCrGrCrAdTdT / antisense rUrGrCrGrCrGrCrCrArGrUrUrUrGrGrCrArArAdAdT”, the normalised inhibition (eCFP-eYFP dual reporter) is 37.3%.

Take “sense rGrCrGrGrGrUrArGrGrGrGrArCrGrUrGrGrUrCdTdT / antisense rGrArCrCrArCrGrUrCrCrCrCrUrArCrCrCrGrCdAdA”: the normalised inhibition (eCFP-eYFP dual reporter) came to 37.2%.

“sense rCrArUrCrArUrCrCrCrCrArCrCrArUrCrArUrCdTdT / antisense rGrArUrGrArUrGrGrUrGrGrGrGrArUrGrArUrGdTdT” came in with a normalised inhibition (eCFP-eYFP dual reporter) of 38.5%.

In another data set the target is UBE2K. The data set can be described thus: reporter assay of Huesken 2005. Particulars: siRNA.
Take “RNA1{r(A)p.r(U)p.r(U)p.r(G)p.r(G)p.r(C)p.r(A)p.r(G)p.r(C)p.r(U)p.r(G)p.r(C)p.r(A)p.r(G)p.r(A)p.r(G)p.r(C)p.r(C)p.r(A)p.d(T)p.d(T)}|RNA2{r(U)p.r(G)p.r(G)p.r(C)p.r(U)p.r(C)p.r(U)p.r(G)p.r(C)p.r(A)p.r(G)p.r(C)p.r(U)p.r(G)p.r(C)p.r(C)p.r(A)p.r(A)p.r(U)p.d(A)p.d(G)}$$$RNA1{StrandType:ss}|RNA2{StrandType:as}$”: the normalised inhibition (eCFP-eYFP dual reporter) came out at 85%.

On to “RNA1{r(U)p.r(G)p.r(G)p.r(C)p.r(A)p.r(U)p.r(C)p.r(C)p.r(U)p.r(A)p.r(A)p.r(U)p.r(A)p.r(U)p.r(U)p.r(A)p.r(G)p.r(U)p.r(U)p.d(T)p.d(T)}|RNA2{r(A)p.r(A)p.r(C)p.r(U)p.r(A)p.r(A)p.r(U)p.r(A)p.r(U)p.r(U)p.r(A)p.r(G)p.r(G)p.r(A)p.r(U)p.r(G)p.r(C)p.r(C)p.r(A)p.d(T)p.d(A)}$$$RNA1{StrandType:ss}|RNA2{StrandType:as}$”, for which the normalised inhibition (eCFP-eYFP dual reporter) was 61.6%.

With “RNA1{r(G)p.r(A)p.r(U)p.r(G)p.r(C)p.r(U)p.r(G)p.r(U)p.r(A)p.r(G)p.r(U)p.r(A)p.r(G)p.r(C)p.r(A)p.r(A)p.r(A)p.r(U)p.r(C)p.d(T)p.d(T)}|RNA2{r(G)p.r(A)p.r(U)p.r(U)p.r(U)p.r(G)p.r(C)p.r(U)p.r(A)p.r(C)p.r(U)p.r(A)p.r(C)p.r(A)p.r(G)p.r(C)p.r(A)p.r(U)p.r(C)p.d(C)p.d(T)}$$$RNA1{StrandType:ss}|RNA2{StrandType:as}$”, the normalised inhibition (eCFP-eYFP dual reporter) came to 65.5%.

In the case of “RNA1{r(A)p.r(U)p.r(U)p.r(A)p.r(A)p.r(A)p.r(G)p.r(U)p.r(A)p.r(G)p.r(A)p.r(U)p.r(C)p.r(U)p.r(U)p.r(G)p.r(U)p.r(A)p.r(G)p.d(T)p.d(T)}|RNA2{r(C)p.r(U)p.r(A)p.r(C)p.r(A)p.r(A)p.r(G)p.r(A)p.r(U)p.r(C)p.r(U)p.r(A)p.r(C)p.r(U)p.r(U)p.r(U)p.r(A)p.r(A)p.r(U)p.d(T)p.d(T)}$$$RNA1{StrandType:ss}|RNA2{StrandType:as}$”, the normalised inhibition (eCFP-eYFP dual reporter) stood at 45.8%.

“RNA1{r(G)p.r(A)p.r(A)p.r(U)p.r(U)p.r(A)p.r(A)p.r(G)p.r(A)p.r(G)p.r(G)p.r(A)p.r(G)p.r(A)p.r(A)p.r(A)p.r(U)p.r(A)p.r(G)p.d(T)p.d(T)}|RNA2{r(C)p.r(U)p.r(A)p.r(U)p.r(U)p.r(U)p.r(C)p.r(U)p.r(C)p.r(C)p.r(U)p.r(C)p.r(U)p.r(U)p.r(A)p.r(A)p.r(U)p.r(U)p.r(C)p.d(T)p.d(G)}$$$RNA1{StrandType:ss}|RNA2{StrandType:as}$” registered a normalised inhibition (eCFP-eYFP dual reporter) of 74.2%.
